The text below walks through data of US11415493B2, “Detection of cells in a liquid sample” (DELTA INSTRUMENTS B.V., priority 2016, dated 2022).

One data set has as its system bacteria in milk samples. The data set is described as follows: Individual bacterial count (IBC) in milk samples with different cell-impermeant dyes, flow cytometer. In kind it is cell-based. The protocol:
The nucleic acid dyes, Evagreen®, SYTOX® Green and Propidium iodide where tested against GelGreen™ (the reference method). […] Nucleic acid dyes Evagreen®, SYTOX® Green and propidium iodide were tested using the same staining and incubation conditions as for the reference method only differing in the type of dye comprised in the staining composition. Evagreen® was used at a concentration of 1.25 μM in the staining composition. SYTOX® Green and Propidium iodide were used at a concentration of 5 μM in the staining composition. Three different types of milk were used: Locally obtained raw bulk tank milk from a farm and dairy plant where collected at a local farmer. This milk is referred to as fresh raw milk and is not older than 24 hours. 24 hour and 48 hour old milk were obtained from a dairy plant. […] For this purpose E. coli was grown overnight (approx. 15 h) in TSB at 32° C. The dead bacterial where obtained by heating the grown E. coli at 110° C. for 10 minutes. An amount of 200 μl of E. coli (living or dead/damaged) is added to 45 ml fresh raw bulk milk. Both living and dead are from the same culture tube and exactly the same amount is put in the 45 ml Fresh raw milk. All the milk samples are kept at 4° C. until analyzed. […] Finally, the samples were analyzed on the flow cytometer and the fluorescent signals from the bacteria were detected and a count per unit volume was determined. […]
Background: In flow cytometry, cells or beads pass a laser one at a time.

The next data set deals with cells. The conditions noted are these: cited from earlier work.
The subject of the next data set is E. coli. The data set is described as follows: Staining E. coli culture with different nucleic acid dyes, flow cytometer counts (FL1FL2 region). In kind it is cell-based, Escherichia coli. As to the method:
First, an experiment was performed to confirm that bacterial counts obtained on the flow cytometer using GelGreen™ did correlate with traditional plate counts. For this, the Petrifilm method was selected (Standard Methods for Examination of Dairy Products 17th Edition 2004. Edited by H. M. Wehr and J. R. Frank. American Public Health Association, 800 I Street, NW, Washington D.C. 200001. Chapter 6.040), rather than a poured agar plate method, because of ease of use. Escherichia coil (E. coli) cultures were grown at 36° C. in Trypticase Soy Broth (TSB) in a culture tube. A staining composition was prepared as follows: The nucleic acid dye GelGreen™ (from Biotium) was diluted to 1× from the 10,000× commercially available stock, into Tris-buffered saline (100 mM Trizma base, 100 mM Trizma HCl, 150 mM NaCl, pH 8.5), which was preheated to 50° C. The used dilution of 1:10,000 of the GelGreen™ is in accordance with the manufacturer's recommendation for using GelGreen™ for the purpose it was intended for, namely staining DNA in an agarose gel. This is the dilution of GelGreen™ used in all the examples herein. The E. coli culture was removed from the 36° C. incubator and a small volume was diluted 1:100 into the preheated staining composition and incubated for approximately 4.5 min at 50° C. The stained E. coli was analyzed on the flow cytometer and the FL1 (Bandpass 531 nm (519-551)) and FL2 (Long pass >550 nm) fluorescence channels were used to identify the stained bacteria (FIGS. 1A and 1C). A rectangular region was defined around the positively stained cells identified as live cells in the FL1 versus FL2 2-dimensional correlation plot (FIG. 1B). A count per mL of the E. coli was obtained from the flow cytometry analysis. The E. coli culture was then diluted in TSB to obtain 3 different concentrations (1:10, 1:100 and 1:1000, respectively). The E. coli cultures were kept at 4° C. to minimize further growth until analysis. Each dilution of E. coli was stained with the GelGreen™ reagent, analyzed on the flow cytometer and counts for each dilution were obtained. Each E. coli culture was also appropriately diluted in Butterfield's PBS and 1 mL of the appropriately diluted culture was plated on Petrifilms in duplicate. The Petrifilms were placed in a 30° C. incubator, removed after 48 hrs and the colonies on each Petrifilm were counted using an automated colony counter. An average CFU/mL for each E. coli dilution was obtained. The Log of the flow cytometer bacterial counts using GelGreen™ was plotted versus the Log CFU counts from the Petrifilm (FIG. 2).
To show where the bacteria in the FL1 and FL2 signal plots can be expected, bacteria were first counted in the staining composition without adding any milk. A culture of E. coli were grown at 36° C. in Trypticase Soy Broth (TSB) in a culture tube. The nucleic acid dye GelGreen™ was diluted into Tris-buffered saline, at approximately pH 8.5, which was preheated to 50° C. The E. coli culture was removed from the 36° C. incubator and a small volume was diluted 1:100 into the preheated staining composition and incubated for approximately 4.5 min at 50° C. The stained E. coli was analyzed on the flow cytometer and the FL1 and FL2 fluorescence channels were used to identify the stained bacteria (FIG. 3A).
A culture of E. coli was grown at 36° C. in Trypticase Soy Broth (TSB), stained with GelGreen™ and counted on the flow cytometer (FIG. 5) as described in example 2. The E. coli culture was then kept at 4° C. until stained with other nucleic acid dyes. The nucleic acid dyes TOTO®-1 and SYBR® Safe (both from Thermo Fisher Scientific) were selected as alternatives. […] Both dyes have similar spectral properties to GelGreen™ and were diluted in Tris-buffered saline using the same dilution factor as GelGreen™. […]

The next data set deals with bacteria in raw milk. Description: Initial staining of bacteria in raw milk diluted in saline buffer, flow cytometer. Type of data set: cell-based. The protocol:
During initial work, raw milk was diluted in a buffer solution and the cell permeant nucleic acid stain SYTO® 9 was used to stain the bacteria contained in the milk. A flow cytometer, equipped with a 488 nm laser as the light source, forward and right angle scatter detectors, and three fluorescence detectors, was used to detect the fluorescence from labeled bacteria. The three fluorescence detectors in the flow cytometer in that initial experiment had the following optical filters; 527 nm Bandpass (FL1), 590 nm Bandpass (FL2), and a 630 nm Longpass (FL3). The flow cytometer utilizes a system that provides volumetric measurement of the sample analyzed and yields a count per unit volume. […] The conclusion was that the background fluorescent signal from the various components in raw milk, and the non-specific binding of the dye to these components, dominated the signal such that it was impossible to detect any bacteria-related fluorescence. Additionally the large scatter signals detected in flow cytometry from the milk fat globules, casein micelles and other components in the milk, prevented the use of forward and right angle scatter in the detection of bacteria. To prevent the background signal, the inventors of the present invention made an attempt to minimize such interference. […]

“Also recorded” adds a separate entry of the source. Read-outs that look alike come from different tables or passages of the source.

As for `CC[N+](C)(CC)CCC[n+]1c(-c2ccccc2)c2cc(N)ccc2c2ccc(N)cc21.[I-].[I-]` [Propidium iodide], in the data set on bacteria in milk samples (conclusion over all milk samples), the “usefulness as alternative dye for GelGreen in the method” value was “does not work”. Besides, the IBC counts entry in the data set on bacteria in milk samples (milk samples except milk spiked with E. coli and cooked, 68° C., 1 min, pH 10.6) is reported as “Almost no IBC counts”. Moreover, the cell membrane permeability entry in the data set on cells is listed as “only penetrates cell membranes of dead cells”.

Regarding `CCCN1C=C/C(=C\c2sc3ccccc3[n+]2C)c2ccccc21` [SYBR® Safe], the “staining of E. coli” value in the data set with E. coli (Tris-buffered saline pH 8.5, room temperature (23° C.)) is “does not need heating to stain E. coli”. Further, the cell membrane permeability entry in the data set with cells (property stated for the dye) is on record as “readily crosses the membrane of cells”.

Regarding `CN1/C(=C/c2cc[n+](CCC[N+](C)(C)CCC[N+](C)(C)CCC[n+]3ccc(/C=C4\Sc5ccccc5N4C)c4ccccc43)c3ccccc23)Sc2ccccc21.[I-].[I-].[I-].[I-]` [TOTO®-1], the “staining of E. coli” value in the data set on E. coli (Tris-buffered saline pH 8.5, 50° C., approximately 4.5 min) is given as “minimal staining; also recorded: does not stain E. coli”. For the same molecule, the cell membrane permeability result with cells (property stated for the dye) was “cell impermeant”.

On to SYTO® 9, for which, in the data set on bacteria in raw milk, the “fluorescence signals of raw milk with spiked bacteria” value is on record as “identical to the fluorescence detected in raw milk without spiked bacteria”.
